Assay results reported in BindingDB's records for doi:10.1021/acsmedchemlett.4c00023 (n/a, 2024).
pIC50: −log10 of the molar value.

Target: Mitogen-activated protein kinase kinase kinase kinase 1 (Homo sapiens, UniProt Q92918)
Assay: Inhibition of full length recombinant human N-terminal GST-tagged HPK1 expressed in baculovirus infected Sf21 insect cells preincubated for 15 mins followed by MBP and ATP addition measured after 120 mins by ADP-Glo reagent based assay

Chain of Mitogen-activated protein kinase kinase kinase kinase 1 (Q92918 whole entry): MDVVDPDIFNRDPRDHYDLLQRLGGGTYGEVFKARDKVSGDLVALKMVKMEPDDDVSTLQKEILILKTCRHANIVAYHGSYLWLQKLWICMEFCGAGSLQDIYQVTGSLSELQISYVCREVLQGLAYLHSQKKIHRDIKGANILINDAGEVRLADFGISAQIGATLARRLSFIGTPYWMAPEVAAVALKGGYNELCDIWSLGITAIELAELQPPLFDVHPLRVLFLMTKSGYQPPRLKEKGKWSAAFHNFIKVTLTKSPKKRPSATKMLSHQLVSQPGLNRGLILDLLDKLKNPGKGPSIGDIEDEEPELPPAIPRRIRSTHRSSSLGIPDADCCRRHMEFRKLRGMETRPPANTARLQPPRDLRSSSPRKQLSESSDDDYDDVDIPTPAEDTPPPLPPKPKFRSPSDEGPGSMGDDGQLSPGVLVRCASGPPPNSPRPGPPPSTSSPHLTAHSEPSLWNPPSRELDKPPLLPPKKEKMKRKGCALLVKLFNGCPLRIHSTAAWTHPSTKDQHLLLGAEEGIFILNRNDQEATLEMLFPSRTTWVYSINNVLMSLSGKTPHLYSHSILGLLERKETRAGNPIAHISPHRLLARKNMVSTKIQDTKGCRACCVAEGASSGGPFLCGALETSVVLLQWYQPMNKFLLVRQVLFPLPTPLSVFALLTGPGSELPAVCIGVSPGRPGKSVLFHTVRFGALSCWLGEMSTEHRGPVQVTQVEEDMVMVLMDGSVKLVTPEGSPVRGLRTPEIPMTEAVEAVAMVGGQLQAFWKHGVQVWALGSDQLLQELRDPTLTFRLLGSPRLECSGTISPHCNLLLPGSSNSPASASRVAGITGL

| pIC50 | SMILES |
| --- | --- |
| > 7.00 | Cc1c(N2CCc3cnc(Nc4ccc5c(c4)CCOC5)nc3C2)cnc2c1NCCO2 [US20240025922, Example 84] |
| > 7.00 | COC1CCN(c2ccc(Nc3ncc4c(n3)CN(c3cnc5c(c3C)NCCO5)CC4)cc2)CC1 [US20240025922, Example 113] |
| > 7.00 | CCc1c(N2CCc3cnc(Nc4ccc(CS(C)(=O)=O)cc4)nc3C2)cnc2c1NCCO2 [US20240025922, Example 145] |
| > 7.00 | Cc1c(N2CCc3cnc(Nc4ccc(Cn5nccn5)cc4)nc3C2)cnc2c1NCCO2 [US20240025922, Example 185] |
| > 7.00 | Cc1c(N2CCc3cnc(Nc4ccc(Cn5cccn5)cc4)nc3C2)cnc2c1NCCO2 [US20240025922, Example 187] |

| SMILES | pIC50 |
| --- | --- |
| Cc1c(N2CCc3cnc(Nc4ccc(N5CCN(C)CC5)cc4)nc3C2)cnc2c1NCCO2 [US20240025922, Example 55] | > 7.00 |
